{
  "source": "patent US9969744B2",
  "about": "“Compounds for use in cognition improvement” (FUNDACIÓN PARA LA INVESTIGACIÓN MÉDICA APLICADA, priority 2014, dated 2018)",
  "system": "pCREB",
  "assay": "In-vivo pCREB in hippocampus of wild type mice",
  "conditions": "1 h after single dose 40 mg/kg i.p.",
  "protocol": "Another group of animals received the vehicle (1/1/8, v:v:v, DMSO/Tween 20/saline). One hour later, mice were sacrificed by cervical dislocation and their hippocampus was quickly dissected from the brains. Total tissue homogenates were obtained by homogenizing the hippocampus in a cold lysis buffer with protease inhibitors (0.2 M NaCl, 0.1 M HEPES, 10% glycerol, 200 mM NaF, 2 mM Na4P2O7, 5 mM EDTA, 1 mM EGTA, 2 mM DTT, 0.5 mM PMSF, 1 mM Na3VO4 and Complete Protease Inhibitor Cocktail, Roche Diagnostics). The homogenate was then centrifuged at 14,000×g at 4° C. for 20 min and the supernatant aliquoted and stored at −80° C. Total protein concentrations were determined using the BioRad Bradford protein assay (BioRad Laboratories). Protein samples were analyzed as described in the “in vitro” section.",
  "data": [
    {"smiles": "CCCc1nn(C)c2c(=O)[nH]c(-c3cc(Cc4ccc(C(=O)Nc5ccccc5N)cc4)ccc3OCC)nc12", "note": "[Example 1-11, N-(2-aminophenyl)-4-[[4-ethoxy-3-(1-methyl-7-oxo-3-propyl-6H-pyrazolo[4,3-d]pyrimidin-5-yl)phenyl]methyl]benzamide]", "values": [
      {"measurement": "pCREB increment vs basal", "value": "+++ (basal x2≤(+++)<basal x3)"}
    ]}
  ]
}
